Source: patent US11680086B2, “Lipopeptide for potently inhibiting HIV, derivative thereof, pharmaceutical composition thereof and use thereof” (Institute of Pathogen Biology, Chinese Academy of Medical …, priority 2017, dated 2023)
Peptide text beside a SMILES is read from it. * marks the point of attachment. X1 = Cc1c(C)c2c(c(C)c1OC(=O)CCC(=O)*)CCC(C)(CCCC(C)CCCC(C)CCCC(C)C)O2; Stearoyl = CCCCCCCCCCCCCCCCCC(=O)*; Palmitoyl = CCCCCCCCCCCCCCCC(=O)*

What was measured:
[1] = system: 35 HIV-1 pseudoviruses (subtypes A, B, B', C, G, A/C, A/E, B/C); details: for IC50: read-out: average IC50 for inhibition of various types of HIV-1 pseudoviruses, average over 35 pseudoviruses; for inhibitory activity against different subtypes of HIV-1 as folds of T-20: relative to T-20, from average IC50
Source text: HIV-1 pseudovirus-mediated cell entry inhibition assay: basic steps included: (1) Preparation of HIV-1 pseudovirus: the 293T cells were co-transfected with a plasmid expressing the envelope protein (Env) of HIV-1 strain NL4-3 (i.e., a recombinant expression plasmid obtained by inserting the gene encoding the envelope protein (ENV) of the D36G mutant of the HIV-1 strain NL4-3 in the Table 2 of the Reference 14 listed in the Background Art into the vector pcDNA3.1(−)) and the HIV-1 backbone plasmid pSG3Δenv (provided by the AIDS Reagent Program of National Institutes of Health (NIH), catalog number: 11051) by using a cell transfection reagent, incubated in a cell incubator of 37° C. and 5% CO2 for 6 hours, and then the medium was changed, and the cells were further incubated for 48 hours. The cell culture supernatant containing pseudovirus particles was pipetted and filtered with a 0.45 μm filter to collect the supernatant, then 20% fetal bovine serum (FBS) was added thereto, the final solution was transferred to a polypropylene tube, and stored at −80° C. for ready for use or directly subjected to virus titration. (2) Titration of HIV-1 pseudovirus: the viruses were diluted by 5 folds in a 96-well plate, and 4 replicate wells with 8 gradients were set to a final volume of 100 microliters. The TZM-b1 cells were trypsinized and counted, and the cells were diluted to 1×10^5 cells/ml with DMEM complete medium; 100 μl of cells dilution (containing 15 μg/ml DEAE-dextran) per well were added and cultured at 37° C. and 5% CO2 for 48 hours. The 96-well plate was then taken from the cell culture incubator. The supernatant was discarded from the wells. To each well, 30 μl of a cell lysate was added, and after 10 minutes, 100 μl of a luciferase detection reagent was added. 100 μl of liquid was pipetted from each well and added to a corresponding 96-well white plate, and the luminescence values were read by a microplate photometer. The virus titer was calculated by the Reed-Muench method. (3) Antiviral activity assay: the test substance was dissolved in DMSO and diluted with a cell culture solution by 3 folds, and placed in a 96-well plate at a final volume of […]. 50 μl of a DMEM medium was used in place of the test substance as a negative control. To each well, 100 μl of TZM-b1 target cells solution (containing 15 μg/ml DEAE-dextran) at a concentration of 1×10^5 cells/ml was added, and then 50 μl (corresponding to 100 TCID50 per well) of the HIV-1 pseudovirus obtained above was added. After incubation at 37° C. and 5% CO2 for 48 hours, the relative light units (RLU) of each well were determined by using a luciferase detection reagent (Promega). Inhibition rate (%) and IC50 value were calculated.
Among them, the A, B and C subtypes were the main viruses causing AIDS epidemic in the world, while B/C and A/E recombinant viruses were the main viruses in China. […] Among the Env expression plasmids used for the preparation of pseudoviral, except that the Env expression plasmids used for preparation of PVO, Du156 and CAP 210.2.00.E8 were obtained from the AIDS Reagent Program of NIH in the United states, other plasmids were preserved by the laboratory of Prof. He Yuxian, Institute of Pathogen Biology, Chinese Academy of Medical Sciences, please see the References 13, 14 and 18 listed in the Background Art and articles of Chong et al. (Chong H, Yao X, Zhang C, Cai L, Cui S, Wang Y, He Y. Biophysical property and broad anti-HIV activity of Albuvirtide, a 3-maleimimidoproprotionic acid-modified peptide fusion inhibitor. PLoS One, 2012; 7 (3): e 32599). The preparation of the pseudovirus and the antiviral assay were the same as those in Example 2.1 of Example 2 (HIV-1 pseudovirus-mediated cell entry inhibition assay).

[2] = system: SIV pseudoviruses SIVpbj and SIV239; assay: inhibition of SIV pseudoviruses; assay type: cell-based
Protocol: The supernatant was discarded from the wells. […] Inhibition rate (%) and IC50 value were calculated.
In order to further reflect the antiviral advantages of the potent lipopeptides of the present invention, their inhibitory activity against HIV-2 and SIV was determined in the example. The methods of antiviral activity assays used were described in the literatures published by the present inventors (see the References 13 and 30 listed in the Background Art). The molecular cloning plasmid pROD of the HIV-2 strain ROD (HIV-2ROD) was kindly provided by Professor Nuno Taveira from the University of Lisbon, Portugal, and the plasmids expressing the SIV strain SIVpbj (SIVPBJ) and SIV239 envelope proteins (pSIVpbj-Env and pSIV239, respectively) were kindly provided by Professor Xu Jianqing from the Fudan University. The preparation of the infectious ROD was the same as that of the infectious JRCSF in the above section 2.1, and the pseudoviruses SIVpbj and SIV239 were prepared by a method same as that described in the above Examples 2 and 3.

[3] = system: HIV-1 strain NL4-3 (NL4-3D36G); assay: antiviral activity in serum of macaque after subcutaneous injection; assay type: in vivo, macaques (rhesus monkeys); details: 3 mg/kg subcutaneous
Protocol: The specific method was as follows: 6 experimental macaques (rhesus monkeys) were selected, half male and half female, aged 3-4 years old, weighing 3.4-4.7 kg. […] The serum was separated according to a conventional method. The injection interval of each inhibitor was more than 2 weeks to ensure that there was no residue of the previous analyte. The serum activity against the HIV-1 strain NL4-3 (NL4-3D36G) was measured according to the experimental method of the pseudovirus-based assay in the above examples. The serum was diluted by 3 folds. […] Therefore, the lipopeptides of the present invention were not only potent but also were long-lasting effective.

[4] = 72 hours (3 days) after injection

| SMILES | IC50 [1] [nM] | inhibitory activity against different subtypes of HIV-1 as folds of T-20 [1] [folds] | inhibitory activity against SIV (in words) [2] | maximum serum dilution multiple for inhibiting 50% of NL4-3 infectivity ([3]; 4 hour after injection) [folds] | maximum serum dilution multiple for inhibiting 50% of NL4-3 infectivity ([3]; 6 hour after injection) [folds] | maximum serum dilution multiple for inhibiting 50% of NL4-3 infectivity [3, 4] [folds] |
| --- | --- | --- | --- | --- | --- | --- |
| CCCCCCCCCCCCCCCC(=O)NCCCC[C@H](NC(=O)[C@H](CCC(=O)O)NC(=O)[C@H](CC(C)C)NC(=O)[C@H](CCCCN)NC(=O)[C@H](CCCCN)NC(=O)[C@H](CC(C)C)NC(=O)[C@H](CCC(=O)O)NC(=O)[C@H](CCC(=O)O)NC(=O)[C@H](CCC(=O)O)NC(=O)[C@H](CC(N)=O)NC(=O)[C@H](CCCCN)NC(=O)[C@H](CCCCN)NC(=O)[C@H](CCC(N)=O)NC(=O)[C@H](CCC(N)=O)NC(=O)[C@H](CCC(=O)O)NC(=O)[C@H](CCC(=O)O)NC(=O)[C@H](C)NC(=O)[C@H](CCCCN)NC(=O)[C@H](CCCCN)NC(=O)[C@H](CC(C)C)NC(=O)[C@H](CC(C)C)NC(=O)[C@H](CCC(=O)O)NC(=O)[C@H](CCC(=O)O)NC(=O)[C@@H](NC(=O)[C@H](CC(N)=O)NC(=O)[C@H](C)NC(=O)[C@H](CCC(=O)O)NC(=O)[C@H](CC(C)C)NC(C)=O)[C@@H](C)CC)C(N)=O [LP-51] (Ac-LEANIEELLKKAEEQQKKNEEELKKLEK(Palmitoyl)-NH2) | 0.033 | 1255 | extremely potent inhibitory activity | 700482 | 584381 | 1122 |
| CCCCCCCCCCCCCCCC(=O)NCCCC[C@H](NC(=O)[C@H](CCC(=O)O)NC(=O)[C@H](CC(C)C)NC(=O)[C@H](CCCCN)NC(=O)[C@H](CCCCN)NC(=O)[C@H](CC(C)C)NC(=O)[C@H](CCC(=O)O)NC(=O)[C@H](CCC(=O)O)NC(=O)[C@H](CCC(=O)O)NC(=O)[C@H](CC(N)=O)NC(=O)[C@H](CCCCN)NC(=O)[C@H](CCCCN)NC(=O)[C@H](CCC(N)=O)NC(=O)[C@H](CCC(N)=O)NC(=O)[C@H](CCC(=O)O)NC(=O)[C@H](CCC(=O)O)NC(=O)[C@H](C)NC(=O)[C@H](CCCCN)NC(=O)[C@H](CCCCN)NC(=O)[C@H](CC(C)C)NC(=O)[C@H](CC(C)C)NC(=O)[C@H](CCC(=O)O)NC(=O)[C@H](CCC(=O)O)NC(=O)[C@@H](NC(=O)[C@H](CCCCN)NC(=O)[C@H](CCC(N)=O)NC(=O)[C@H](CCC(=O)O)NC(=O)[C@H](Cc1c[nH]c2ccccc12)NC(C)=O)[C@@H](C)CC)C(N)=O [LP-52] (Ac-WEQKIEELLKKAEEQQKKNEEELKKLEK(Palmitoyl)-NH2) | 0.016 | 2588 | extremely potent inhibitory activity | 700802 | 669112 | 182 |
| CC[C@H](C)[C@H](NC(=O)[C@H](CCCCN)NC(=O)[C@H](CCC(N)=O)NC(=O)[C@H](CCC(=O)O)NC(=O)[C@H](Cc1c[nH]c2ccccc12)NC(C)=O)C(=O)N[C@@H](CCC(=O)O)C(=O)N[C@@H](CCC(=O)O)C(=O)N[C@@H](CC(C)C)C(=O)N[C@@H](CC(C)C)C(=O)N[C@@H](CCCCN)C(=O)N[C@@H](CCCCN)C(=O)N[C@@H](C)C(=O)N[C@@H](CCC(=O)O)C(=O)N[C@@H](CCC(=O)O)C(=O)N[C@@H](CCC(N)=O)C(=O)N[C@@H](CCC(N)=O)C(=O)N[C@@H](CCCCN)C(=O)N[C@@H](CCCCN)C(=O)N[C@@H](CC(N)=O)C(=O)N[C@@H](CCC(=O)O)C(=O)N[C@@H](CCC(=O)O)C(=O)N[C@@H](CCC(=O)O)C(=O)N[C@@H](CC(C)C)C(=O)N[C@@H](CCCCN)C(=O)N[C@@H](CCCCN)C(=O)N[C@@H](CC(C)C)C(=O)N[C@@H](CCC(=O)O)C(=O)N[C@@H](CCCCNC(=O)CCC(=O)Oc1c(C)c(C)c2c(c1C)CCC(C)(CCCC(C)CCCC(C)CCCC(C)C)O2)C(N)=O (some centres unmarked) [LP-85] (Ac-WEQKIEELLKKAEEQQKKNEEELKKLEK(X1)-NH2) |  | 941 | extremely potent inhibitory activity |  |  |  |
| CCCCCCCCCCCCCCCCCC(=O)NCCCC[C@H](NC(=O)[C@H](CCC(=O)O)NC(=O)[C@H](CC(C)C)NC(=O)[C@H](CCCCN)NC(=O)[C@H](CCCCN)NC(=O)[C@H](CC(C)C)NC(=O)[C@H](CCC(=O)O)NC(=O)[C@H](CCC(=O)O)NC(=O)[C@H](CCC(=O)O)NC(=O)[C@H](CC(N)=O)NC(=O)[C@H](CCCCN)NC(=O)[C@H](CCCCN)NC(=O)[C@H](CCC(N)=O)NC(=O)[C@H](CCC(N)=O)NC(=O)[C@H](CCC(=O)O)NC(=O)[C@H](CCC(=O)O)NC(=O)[C@H](C)NC(=O)[C@H](CCCCN)NC(=O)[C@H](CCCCN)NC(=O)[C@H](CC(C)C)NC(=O)[C@H](CC(C)C)NC(=O)[C@H](CCC(=O)O)NC(=O)[C@H](CCC(=O)O)NC(=O)[C@@H](NC(C)=O)[C@@H](C)CC)C(N)=O [LP-90] (Ac-IEELLKKAEEQQKKNEEELKKLEK(Stearoyl)-NH2) | 0.014 | 2958 | extremely potent inhibitory activity |  |  |  |
